{"source": "PubChem BioAssay AID2060488", "about": "(Molecular Pharmacology Branch, DTP, NCI, 2025);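 also: spheroids exposed to the agents for seven days before readout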;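 as to viability, T/C: percent viability relative to DMSO vehicle control wells taken as 100%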", "tested_on": "966289-007-R4-J1-PDC complex spheroid viability", "test": "Anticancer human tumor 966289-007-R4-J1-PDC patient-derived pancreatic adenocarcinoma cell line growth inhibition [GQUAD]", "details": "for IC50: curve of first compound; for viability, T/C: stronger effect = lower value", "outline": "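Tumor cells were grown as complex spheroids with HUVEC endothelial cells and mesenchymal stem cells as stroma. G-quadruplex stabilizers were combined with targeted agents over half-log dilutions from near the clinical Cmax, or from 10 microM.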", "key": {"[1]": {"details": "second compound 0.0316 µM, first compound 0.0316 µM"}, "[2]": {"details": "second compound 0.0316 µM, first compound 0.1 µM"}, "[3]": {"details": "second compound 0.0316 µM, first compound 0.316 µM"}, "[4]": {"details": "second compound 0.0316 µM, first compound 1 µM"}, "[5]": {"details": "second compound 0.0316 µM, first compound 3.16 µM"}, "[6]": {"details": "second compound 0.0316 µM, first compound 10 µM"}, "[7]": {"details": "second compound 0.1 µM, first compound 0.0316 µM"}, "[8]": {"details": "second compound 0.1 µM, first compound 0.1 µM"}, "[9]": {"details": "second compound 0.1 µM, first compound 0.316 µM"}, "[10]": {"details": "second compound 0.1 µM, first compound 1 µM"}, "[11]": {"details": "second compound 0.1 µM, first compound 3.16 µM"}, "[12]": {"details": "second compound 0.1 µM, first compound 10 µM"}, "[13]": {"details": "second compound 0.316 µM, first compound 0.0316 µM"}, "[14]": {"details": "second compound 0.316 µM, first compound 0.1 µM"}, "[15]": {"details": "second compound 0.316 µM, first compound 0.316 µM"}, "[16]": {"details": "second compound 0.316 µM, first compound 1 µM"}, "[17]": {"details": "second compound 0.316 µM, first compound 3.16 µM"}, "[18]": {"details": "second compound 0.316 µM, first compound 10 µM"}, "[19]": {"details": "second compound 1 µM, first compound 0.0316 µM"}, "[20]": {"details": "second compound 1 µM, first compound 0.1 µM"}, "[21]": {"details": "second compound 1 µM, first compound 0.316 µM"}, "[22]": {"details": "second compound 1 µM, first compound 1 µM"}, "[23]": {"details": "second compound 1 µM, first compound 3.16 µM"}, "[24]": {"details": "second compound 1 µM, first compound 10 µM"}, "[25]": {"details": "second compound 3.16 µM, first compound 0.0316 µM"}, "[26]": {"details": "second compound 3.16 µM, first compound 0.1 µM"}, "[27]": {"details": "second compound 3.16 µM, first compound 0.316 µM"}, "[28]": {"details": "second compound 3.16 µM, first compound 1 µM"}, "[29]": {"details": "second compound 3.16 µM, first compound 3.16 µM"}, "[30]": {"details": "second compound 3.16 µM, first compound 10 µM"}, "[31]": {"details": "second compound 10 µM, first compound 0.0316 µM"}, "[32]": {"details": "second compound 10 µM, first compound 0.1 µM"}, "[33]": {"details": "second compound 10 µM, first compound 0.316 µM"}, "[34]": {"details": "second compound 10 µM, first compound 1 µM"}, "[35]": {"details": "second compound 10 µM, first compound 3.16 µM"}, "[36]": {"details": "second compound 10 µM, first compound 10 µM"}}}
{"smiles": "O=C(NO)c1cnc(N2CCN(S(=O)(=O)c3ccc4ccccc4c3)CC2)nc1", "note": "+ Cc1[nH]c2ccc(F)cc2c1-c1nc2c3cccnc3c3ncccc3c2[nH]1", "values": [{"measurement": "IC50", "setting": "second compound 0.0316 µM", "value": 682, "unit": "nM"}, {"measurement": "IC50", "setting": "second compound 0.1 µM", "value": 847, "unit": "nM"}, {"measurement": "IC50", "setting": "second compound 0.316 µM", "value": 1170, "unit": "nM"}, {"measurement": "IC50", "setting": "second compound 1 µM", "value": 1250, "unit": "nM"}, {"measurement": "IC50", "setting": "second compound 3.16 µM", "value": 943, "unit": "nM"}, {"measurement": "IC50", "setting": "second compound 10 µM", "value": 948, "unit": "nM"}, {"measurement": "viability, T/C", "setting": "[1]", "value": 100, "unit": "%"}, {"measurement": "viability, T/C", "setting": "[2]", "value": 96.8, "unit": "%"}, {"measurement": "viability, T/C", "setting": "[3]", "value": 112, "unit": "%"}, {"measurement": "viability, T/C", "setting": "[4]", "value": 23.5, "unit": "%"}, {"measurement": "viability, T/C", "setting": "[5]", "value": 1.82, "unit": "%"}, {"measurement": "viability, T/C", "setting": "[6]", "value": 0.49, "unit": "%"}, {"measurement": "viability, T/C", "setting": "[7]", "value": 104, "unit": "%"}, {"measurement": "viability, T/C", "setting": "[8]", "value": 97.4, "unit": "%"}, {"measurement": "viability, T/C", "setting": "[9]", "value": 110, "unit": "%"}, {"measurement": "viability, T/C", "setting": "[10]", "value": 41, "unit": "%"}, {"measurement": "viability, T/C", "setting": "[11]", "value": 1.2, "unit": "%"}, {"measurement": "viability, T/C", "setting": "[12]", "value": 0.14, "unit": "%"}, {"measurement": "viability, T/C", "setting": "[13]", "value": 103, "unit": "%"}, {"measurement": "viability, T/C", "setting": "[14]", "value": 97.2, "unit": "%"}, {"measurement": "viability, T/C", "setting": "[15]", "value": 110, "unit": "%"}, {"measurement": "viability, T/C", "setting": "[16]", "value": 57.5, "unit": "%"}, {"measurement": "viability, T/C", "setting": "[17]", "value": 3.37, "unit": "%"}, {"measurement": "viability, T/C", "setting": "[18]", "value": 0.12, "unit": "%"}, {"measurement": "viability, T/C", "setting": "[19]", "value": 94.7, "unit": "%"}, {"measurement": "viability, T/C", "setting": "[20]", "value": 102, "unit": "%"}, {"measurement": "viability, T/C", "setting": "[21]", "value": 115, "unit": "%"}, {"measurement": "viability, T/C", "setting": "[22]", "value": 61.3, "unit": "%"}, {"measurement": "viability, T/C", "setting": "[23]", "value": 4.62, "unit": "%"}, {"measurement": "viability, T/C", "setting": "[24]", "value": 0.3, "unit": "%"}, {"measurement": "viability, T/C", "setting": "[25]", "value": 101, "unit": "%"}, {"measurement": "viability, T/C", "setting": "[26]", "value": 111, "unit": "%"}, {"measurement": "viability, T/C", "setting": "[27]", "value": 111, "unit": "%"}, {"measurement": "viability, T/C", "setting": "[28]", "value": 46.9, "unit": "%"}, {"measurement": "viability, T/C", "setting": "[29]", "value": 3.24, "unit": "%"}, {"measurement": "viability, T/C", "setting": "[30]", "value": 0.41, "unit": "%"}, {"measurement": "viability, T/C", "setting": "[31]", "value": 112, "unit": "%"}, {"measurement": "viability, T/C", "setting": "[32]", "value": 104, "unit": "%"}, {"measurement": "viability, T/C", "setting": "[33]", "value": 115, "unit": "%"}, {"measurement": "viability, T/C", "setting": "[34]", "value": 47.1, "unit": "%"}, {"measurement": "viability, T/C", "setting": "[35]", "value": 2.05, "unit": "%"}, {"measurement": "viability, T/C", "setting": "[36]", "value": 0.25, "unit": "%"}]}
{"smiles": "O=c1[nH]cc(F)c(=O)[nH]1", "note": "+ Cc1[nH]c2ccc(F)cc2c1-c1nc2c3cccnc3c3ncccc3c2[nH]1", "values": [{"measurement": "IC50", "setting": "second compound 0.0316 µM", "value": 159, "unit": "nM"}, {"measurement": "IC50", "setting": "second compound 0.1 µM", "value": 186, "unit": "nM"}, {"measurement": "IC50", "setting": "second compound 0.316 µM", "value": 181, "unit": "nM"}, {"measurement": "IC50", "setting": "second compound 1 µM", "value": 164, "unit": "nM"}, {"measurement": "IC50", "setting": "second compound 3.16 µM", "value": 150, "unit": "nM"}, {"measurement": "IC50", "setting": "second compound 10 µM", "value": 93.4, "unit": "nM"}, {"measurement": "viability, T/C", "setting": "[1]", "value": 111, "unit": "%"}, {"measurement": "viability, T/C", "setting": "[2]", "value": 74.5, "unit": "%"}, {"measurement": "viability, T/C", "setting": "[3]", "value": 13.6, "unit": "%"}, {"measurement": "viability, T/C", "setting": "[4]", "value": 5.76, "unit": "%"}, {"measurement": "viability, T/C", "setting": "[5]", "value": 6.03, "unit": "%"}, {"measurement": "viability, T/C", "setting": "[6]", "value": 6.51, "unit": "%"}, {"measurement": "viability, T/C", "setting": "[7]", "value": 112, "unit": "%"}, {"measurement": "viability, T/C", "setting": "[8]", "value": 92.4, "unit": "%"}, {"measurement": "viability, T/C", "setting": "[9]", "value": 13.9, "unit": "%"}, {"measurement": "viability, T/C", "setting": "[10]", "value": 6.57, "unit": "%"}, {"measurement": "viability, T/C", "setting": "[11]", "value": 5.93, "unit": "%"}, {"measurement": "viability, T/C", "setting": "[12]", "value": 6.8, "unit": "%"}, {"measurement": "viability, T/C", "setting": "[13]", "value": 95.9, "unit": "%"}, {"measurement": "viability, T/C", "setting": "[14]", "value": 90.5, "unit": "%"}, {"measurement": "viability, T/C", "setting": "[15]", "value": 12.1, "unit": "%"}, {"measurement": "viability, T/C", "setting": "[16]", "value": 7.51, "unit": "%"}, {"measurement": "viability, T/C", "setting": "[17]", "value": 5.56, "unit": "%"}, {"measurement": "viability, T/C", "setting": "[18]", "value": 6.35, "unit": "%"}, {"measurement": "viability, T/C", "setting": "[19]", "value": 96.3, "unit": "%"}, {"measurement": "viability, T/C", "setting": "[20]", "value": 76.5, "unit": "%"}, {"measurement": "viability, T/C", "setting": "[21]", "value": 14.8, "unit": "%"}, {"measurement": "viability, T/C", "setting": "[22]", "value": 7.21, "unit": "%"}, {"measurement": "viability, T/C", "setting": "[23]", "value": 6.11, "unit": "%"}, {"measurement": "viability, T/C", "setting": "[24]", "value": 6.82, "unit": "%"}, {"measurement": "viability, T/C", "setting": "[25]", "value": 110, "unit": "%"}, {"measurement": "viability, T/C", "setting": "[26]", "value": 68.8, "unit": "%"}, {"measurement": "viability, T/C", "setting": "[27]", "value": 15.2, "unit": "%"}, {"measurement": "viability, T/C", "setting": "[28]", "value": 9.36, "unit": "%"}, {"measurement": "viability, T/C", "setting": "[29]", "value": 7.92, "unit": "%"}, {"measurement": "viability, T/C", "setting": "[30]", "value": 9.72, "unit": "%"}, {"measurement": "viability, T/C", "setting": "[31]", "value": 114, "unit": "%"}, {"measurement": "viability, T/C", "setting": "[32]", "value": 46, "unit": "%"}, {"measurement": "viability, T/C", "setting": "[33]", "value": 14.6, "unit": "%"}, {"measurement": "viability, T/C", "setting": "[34]", "value": 9.18, "unit": "%"}, {"measurement": "viability, T/C", "setting": "[35]", "value": 6.61, "unit": "%"}, {"measurement": "viability, T/C", "setting": "[36]", "value": 7.61, "unit": "%"}]}
